Test results reported in patent US12125561B2, “Determination of JAK-STAT3 pathway activity using unique combination of target genes” (InnoSIGN B.V., priority 2017, dated 2024).

Legend:
Format in all cases: cell-based
[1] = test system: JAK-STAT3 cellular signaling pathway in EGFR mutant cells of lung cancer; test: JAK-STAT3 pathway activity, lung Bayesian network model, calibration on data set GSE57156; conditions: calibration samples, group 1; DMSO-treated cells considered active; FIG. 9
Description: Herein, available expression data sets of EGFR mutant cells of lung cancer from data set GSE57156 were used.
(§1) Herein, an exemplary Bayesian network model as shown in FIG. 2 was used to model the transcriptional program of the JAK-STAT3 cellular signaling pathway in a simple manner. The model consists of three types of nodes: (a) a transcription factor (TF) element (with states “absent” and “present”) in a first layer 1; (b) target genes TG1, TG2, TGn (with states “down” and “up”) in a second layer 2, and; (c) measurement nodes linked to the expression levels of the target genes in a third layer 3. These can be microarray probesets PS1,1, PS1,2, PS1,3, PS2,1, PSn,1, PSn,m (with states “low” and “high”), as preferably used herein, but could also be other gene expression measurements such as RNAseq or RT-qPCR.
A suitable implementation of the mathematical model, herein, the exemplary Bayesian network model, is based on microarray data. The model describes (i) how the expression levels of the target genes depend on the activation of the TF element, and (ii) how probeset intensities, in turn, depend on the expression levels of the respective target genes. […]

[2] = test system: JAK-STAT3 cellular signaling pathway in PC9 NSCLC cells; test: JAK-STAT3 pathway activity prediction, lung model, data set GSE67051, PC9; conditions: PC 9, treated for 8 days, group 1 vs group 2; FIG. 13
Description: as §1
(§2) A suitable implementation of the mathematical model, herein, the exemplary Bayesian network model, is based on microarray data. The model describes (i) how the expression levels of the target genes depend on the activation of the TF element, and (ii) how probeset intensities, in turn, depend on the expression levels of the respective target genes. For the latter, probeset intensities may be taken from fRMA pre-processed Affymetrix HG-U133Plus2.0 microarrays, which are widely available from the Gene Expression Omnibus (GEO, www.ncbi.nlm.nih.gov/geo) and ArrayExpress (www.ebi.ac.uk/arrayexpress). […]

[3] = test system: JAK-STAT3 cellular signaling pathway in epithelial cells from HaCaT cell lines; test: JAK-STAT3 pathway activity prediction, lung model, data set GSE32975; conditions: EGF vs unstimulated control; gefitinib samples in group 6 and group 7; FIG. 11
Description: Epithelial cells from HaCaT cell lines were stimulated with epidermal growth factor (EGF) in data set GSE32975. Each group represents one replica from the cell line.

[4] = test system: JAK-STAT3 cellular signaling pathway in Ishikawa H cells (derived endometrial carcinomas); test: JAK-STAT3 pathway activity prediction, lung model, data set GSE20854; conditions: FIG. 12
Protocol: Ishikawa H cells (derived endometrial carcinomas) were dosed with either EGF (epidermal growth factor) or Iressa (gefitinib) for 12 or 24 hours in data set GSE20854.

[5] = test system: JAK-STAT3 cellular signaling pathway in tamoxifen initiated, transformation inducible, breast cancer model system; test: JAK-STAT3 pathway activity prediction, lung model, data set GSE64536; conditions: FIG. 15
Description: as §1, §2

[6] = test system: JAK-STAT3 cellular signaling pathway in Sez-4 cell line (cutaneous T-cell lymphoma); test: JAK-STAT3 pathway activity prediction, blood model, data set GSE8685; conditions: cells starved of IL-2 for 16 hours, then IL-2 (200 U) resp. IL-15 (20 ng/mL); FIG. 16
Protocol: A Sez-4 cell line which was derived from a cutaneous T-cell lymphoma (data set GSE8685). […] IL-15 (20 ng/mL).

[7] = dosed for 12 hours, compared to undosed samples harvested at 12 hours
[8] = dosed for 24 hours, compared to undosed samples harvested at 24 hours

| Molecule | predicted STAT3 pathway activity (odds that the TF element is present) [3] | predicted STAT3 pathway activity (odds that the TF element is present) [4, 7] | predicted STAT3 pathway activity (odds that the TF element is present) [4, 8] | also measured |
| --- | --- | --- | --- | --- |
| C#Cc1cccc(Nc2ncnc3cc(OCCOC)c(OCCOC)cc23)c1 [erlotinib] | – | – | – | JAK-STAT3 pathway status of treated cells (odds that the TF element is present) [1]: JAK-STAT3 inactive; predicted STAT3 activity of DMSO-treated cells compared to erlotinib-treated cells [2]: higher |
| COc1cc2ncnc(Nc3ccc(F)c(Cl)c3)c2cc1OCCCN1CCOCC1 [gefitinib] | decreased STAT3 pathway activity | decreased STAT3 pathway activity | decreased STAT3 pathway activity | – |
| CC/C(=C(\c1ccccc1)c1ccc(OCCN(C)C)cc1)c1ccccc1 [tamoxifen] | – | – | – | predicted JAK-STAT3 activity of EtOH-treated cells compared to cells initiated with tamoxifen ([5]; 4 hours, group 1 vs group 3): higher; predicted JAK-STAT3 activity of EtOH-treated cells compared to cells initiated with tamoxifen ([5]; 24 hours, group 2 vs group 4): higher |
| IL-15: cytokine added to IL-2 starved Sez-4 cells | – | – | – | predicted JAK-STAT3 pathway status compared to the control group [6]: active |
| epidermal growth factor (NSDSECPLSHDGYCLHDGVCMYIEALDKYACNCVVGYIGERCQYRDLKWWELR; Epidermal growth factor; UniProt P01133 971-1023, looked up) [EGF, epidermal growth factor (EGF)] | higher STAT3 activity | higher STAT3 activity | higher STAT3 activity | – |
